Laboratory results as given in ChEMBL document CHEMBL4219027, “Lead Optimization of Benzoxepin-Type Selective Estrogen Receptor (ER) Modulators and Downregulators with Subtype-Specific ERα and ERβ Activity” (J Med Chem, 2018).
Calls of active or inactive are those of the source. The rule behind the calls is not given here.

Tests used:
MCF7 [1] = assay: cells; details: Homo sapiens, MCF7, 72 h
Description: Antiproliferative activity against ER-dependent human MCF7 cells after 72 hrs by MTT assay

Estrogen receptor beta [2] = target: T1, Estrogen receptor beta (Homo sapiens, UniProt Q92731)
Estrogen receptor [3] = target: T2, Estrogen receptor (Homo sapiens, UniProt P03372); assay: Displacement of fluorescein-labeled estradiol (fluoromone) from human recombinant full-length estrogen receptor alpha after 2 hrs by fluorescence polarization assay
T2 sequence (P03372 whole entry): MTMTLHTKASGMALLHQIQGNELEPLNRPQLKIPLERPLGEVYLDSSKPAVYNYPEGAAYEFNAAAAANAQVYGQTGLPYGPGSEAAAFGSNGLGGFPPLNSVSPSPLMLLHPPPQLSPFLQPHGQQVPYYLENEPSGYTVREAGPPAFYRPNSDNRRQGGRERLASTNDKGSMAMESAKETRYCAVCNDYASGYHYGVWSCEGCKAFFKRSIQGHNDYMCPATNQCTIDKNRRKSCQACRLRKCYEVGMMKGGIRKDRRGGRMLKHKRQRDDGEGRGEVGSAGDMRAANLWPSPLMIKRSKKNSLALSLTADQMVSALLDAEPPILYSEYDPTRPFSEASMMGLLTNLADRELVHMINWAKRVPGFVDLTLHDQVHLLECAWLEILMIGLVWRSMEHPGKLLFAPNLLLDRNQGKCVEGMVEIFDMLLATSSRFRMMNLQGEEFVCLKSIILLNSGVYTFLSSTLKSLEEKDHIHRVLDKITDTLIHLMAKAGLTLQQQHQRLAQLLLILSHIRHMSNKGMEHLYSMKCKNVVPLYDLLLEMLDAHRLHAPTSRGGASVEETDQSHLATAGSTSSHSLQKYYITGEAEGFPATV

Homo sapiens = species: Homo sapiens; assay: Selectivity index, ratio of IC50 for human recombinant full-length estrogen receptor beta to IC50 for human recombinant full-length estrogen receptor alpha
Estrogen receptor [4] = target: T3, Estrogen receptor (Homo sapiens, UniProt Q92731+P03372); assay: Antagonist activity at estrogen receptor alpha/beta in human Ishikawa cells after 72 hrs by alkaline phosphatase assay; format: cell-based
Estrogen receptor [5] = target: T3, Estrogen receptor; assay: Estrogenic activity at estrogen receptor alpha/beta in human Ishikawa cells at 0.01 uM after 72 hrs by alkaline phosphatase assay relative to estradiol; format: ADME, cell-based
Estrogen receptor beta [6] = target: T1, Estrogen receptor beta; assay: Estrogenic activity at estrogen receptor beta in human Ishikawa cells at 1 uM after 72 hrs by alkaline phosphatase assay relative to estradiol; format: cell-based
[7] = target: T4, Estrogen receptor (Homo sapiens) (UniProt P03372); assay: Downregulation of estrogen receptor alpha protein levels in human MCF7 cell lysate at 10 uM after 24 hrs by Western blot analysis
T4 sequence (whole entry): T2 sequence (P03372 whole entry)

Estrogen receptor beta [8] = target: T1, Estrogen receptor beta; assay: Downregulation of estrogen receptor beta protein levels in human MCF7 cell lysate at 10 uM after 24 hrs by Western blot analysis
Estrogen receptor beta [9] = target: T1, Estrogen receptor beta; assay: Antagonist activity at estrogen receptor beta in human Ishikawa cells after 72 hrs by alkaline phosphatase assay; format: cell-based
MCF-10A [10] = assay: Cytotoxicity against human MCF10A cells assessed as reduction in cell viability at 1 to 10 uM after 24 to 48 hrs by CytoTox 96 non-radioactive LDH cytotoxicity assay; format: cell-based
MCF-10A [11] = assay: Cytotoxicity against human MCF10A cells assessed as reduction in cell viability at 10 uM after 24 to 48 hrs by CytoTox 96 non-radioactive LDH cytotoxicity assay; format: cell-based
MCF-10A [12] = assay: Cytotoxicity against human MCF10A cells assessed as reduction in cell viability at 5 uM after 24 hrs by CytoTox 96 non-radioactive LDH cytotoxicity assay; format: cell-based
MCF-10A [13] = assay: Cytotoxicity against human MCF10A cells assessed as reduction in cell viability at 1 to 2 uM after 24 to 48 hrs by CytoTox 96 non-radioactive LDH cytotoxicity assay; format: cell-based
Estrogen receptor [14] = target: T3, Estrogen receptor; assay: Estrogenic activity at estrogen receptor alpha/beta in human Ishikawa cells at 10 uM after 72 hrs by alkaline phosphatase assay relative to estradiol; format: ADME, cell-based
MCF7 [15] = assay: cells; details: Homo sapiens
Description: Cytotoxicity against human MCF7 cells assessed as reduction in cell viability after 3 to 12 days by MTT assay

[16] = target: estrogen receptor alpha/beta (Homo sapiens, UniProt P03372+Q92731); assay: Estrogenic activity at estrogen receptor alpha/beta in human Ishikawa cells at 100 uM after 72 hrs by alkaline phosphatase assay relative to estradiol; format: ADME, cell-based; details: read-out: Activity

T1 sequence (Q92731 whole entry): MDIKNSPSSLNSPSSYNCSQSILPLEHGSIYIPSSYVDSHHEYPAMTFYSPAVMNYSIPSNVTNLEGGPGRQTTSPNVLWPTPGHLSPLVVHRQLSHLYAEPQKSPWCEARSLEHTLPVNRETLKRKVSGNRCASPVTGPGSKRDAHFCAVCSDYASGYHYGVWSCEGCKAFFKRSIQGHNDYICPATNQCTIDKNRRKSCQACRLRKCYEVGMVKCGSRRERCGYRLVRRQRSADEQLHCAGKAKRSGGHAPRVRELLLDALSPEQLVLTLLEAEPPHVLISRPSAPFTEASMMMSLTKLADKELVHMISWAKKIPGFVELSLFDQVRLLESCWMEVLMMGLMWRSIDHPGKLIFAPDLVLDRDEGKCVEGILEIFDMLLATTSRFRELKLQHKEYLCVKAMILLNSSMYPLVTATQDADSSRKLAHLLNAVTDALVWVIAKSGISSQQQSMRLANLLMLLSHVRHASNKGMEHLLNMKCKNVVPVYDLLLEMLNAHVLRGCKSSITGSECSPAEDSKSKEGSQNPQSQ

Row | Compound | IC50 (MCF7 [1]) | IC50 (Estrogen receptor beta [2]) | IC50 (Estrogen receptor [3]) | Ratio IC50 (Homo sapiens) | other results
1 | COc1ccc2c(c1)OCCC(c1ccc(O)cc1)=C2c1ccc(OCC(=O)O)cc1 | > 20000 nM | 1010 nM | 429 nM | 2.4 | 
2 | O=C(O)/C=C/c1ccc(C2=C(c3ccc(O)cc3)CCOc3ccccc32)cc1 | 21000 nM | 46 nM | 21 nM | 2.2 | IC50 (Estrogen receptor [4]): 0.67 µM
3 | O=Cc1ccc(C2=C(c3ccc(O)cc3)CCOc3cc(F)ccc32)cc1 |  | 395 nM | 407 nM |  | 
4 | COc1ccc2c(c1)OCCC(c1ccc(O)cc1)=C2c1ccc(/C=C/C(=O)O)cc1 | > 20000 nM | 119 nM | 23 nM | 5.3 | Activity (Estrogen receptor [5]): 15.8%; IC50 (Estrogen receptor [4]): > 1 µM
5 | CCC(=C(c1ccc(O)cc1)c1ccc(OCCN(C)C)cc1)c1ccccc1 | 110 nM |  |  |  | 
6 | O=C(/C=C/c1ccc(C2=C(c3ccc(O)cc3)CCOc3cc(F)ccc32)cc1)N1CCCC1 | 14000 nM | 2.4 nM | 67 nM | 0.038 | 
7 | O=C(O)COc1ccc(C2=C(c3ccc(O)cc3)CCOc3cc(F)ccc32)cc1 | > 20000 nM | 34 nM | 634 nM | 0.054 | 
8 | O=C(O)CCCOc1ccc(C2=C(c3ccc(O)cc3)CCOc3cc(F)ccc32)cc1 | > 20000 nM | 1.23 nM | 147 nM | 0.008 | Activity (Estrogen receptor beta [6]): 3.2%; Activity [7]: inactive; Activity (Estrogen receptor beta [8]): Active; IC50 (Estrogen receptor beta [9]): 430 nM; Activity (MCF-10A [10]): Non-Toxic
9 | CCN(CC)C(=O)/C=C/c1ccc(C2=C(c3ccc(O)cc3)CCOc3cc(F)ccc32)cc1 | 13000 nM | 43 nM | 349 nM | 0.12 | activity at 72 h, 100 µM [16]: 10%; IC50 (Estrogen receptor [4]): 0.0098 µM
10 | Oc1ccc(C2=C(c3ccc(/C=C/c4ccccc4)cc3)c3ccc(F)cc3OCC2)cc1 | 12000 nM | 14300 nM | 22400 nM | 0.6 | 

Further lines, with some results ahead:

Row | IC50 (MCF7 [1]) | IC50 (Estrogen receptor beta [2]) | IC50 (Estrogen receptor [3]) | Ratio IC50 (Homo sapiens) | Compound | other results
11 | 260 nM | 72 nM | 14 nM | 5.2 | O=C(O)/C=C/c1ccc(C2=C(c3ccc(O)cc3)CCOc3cc(F)ccc32)cc1 | IC50 (Estrogen receptor [4]): 1.39 µM
12 | 8400 nM | 72 nM | 74 nM | 1 | O=C(/C=C/c1ccc(C2=C(c3ccc(O)cc3)CCOc3cc(F)ccc32)cc1)N1CCN(Cc2ccccc2)CC1 | 
13 | 700 nM |  |  |  | CCNC(=O)/C=C/c1ccc(C2=C(c3ccc(O)cc3)CCOc3cc(F)ccc32)cc1 | 
14 | 1050 nM | 203 nM | 48 nM | 4.3 | Cc1ccc(N2CCN(C(=O)/C=C/c3ccc(C4=C(c5ccc(O)cc5)CCOc5cc(F)ccc54)cc3)CC2)cc1 | 
15 | 480 nM | 354 nM | 57 nM | 6.3 | CN1CCN(C(=O)/C=C/c2ccc(C3=C(c4ccc(O)cc4)CCOc4cc(F)ccc43)cc2)CC1 | 
16 | 9500 nM | 25 nM | 14 nM | 1.9 | O=C(/C=C/c1ccc(C2=C(c3ccc(O)cc3)CCOc3cc(F)ccc32)cc1)N1CCNCC1 | 
17 | 1600 nM | 0.55 nM | 71.6 nM | 0.008 | O=C(O)/C=C/C=C/c1ccc(C2=C(c3ccc(O)cc3)CCOc3cc(F)ccc32)cc1 | Activity [7]: Active; Activity (Estrogen receptor beta [8]): Active; Activity (MCF-10A [11]): Toxic; Activity (MCF-10A [12]): 50%; Activity (MCF-10A [13]): Non-Toxic
18 | 95 nM | 3.1 nM | 4.1 nM | 0.8 | O=C(O)/C=C/c1ccc(C2=C(c3ccc(O)cc3)CCSc3cc(F)ccc32)cc1 | Activity (Estrogen receptor [14]): 1.6%; IC50 (Estrogen receptor [4]): 0.18 µM
19 | 8800 nM | 585 nM | 1020 nM | 0.58 | CCN(CC)CCNC(=O)/C=C/c1ccc(C2=C(c3ccc(O)cc3)CCOc3cc(F)ccc32)cc1 | 
20 | 1300 nM |  |  |  | CCC(=C(c1ccc(O)cc1)c1ccc(/C=C/C(=O)O)cc1)c1ccccc1 | IC50 (MCF7 [15]): 100 to 1000 nM
21 | 890 nM | 175 nM | 59 nM | 3 | CC(=O)/C=C/c1ccc(C2=C(c3ccc(O)cc3)CCOc3cc(F)ccc32)cc1 | IC50 (Estrogen receptor [4]): 0.45 µM
22 | 1300 nM | 0.94 nM | 11.7 nM | 0.087 | O=C(/C=C/c1ccc(C2=C(c3ccc(O)cc3)CCOc3cc(F)ccc32)cc1)Nc1ccccc1 | 
23 | 970 nM | 447 nM | 104 nM | 4.2 | O=C(/C=C/c1ccc(C2=C(c3ccc(O)cc3)CCOc3cc(F)ccc32)cc1)c1ccccc1 | 
